Measured values as given in patent US7655225B2, “Methods of expanding stem and progenitor cells and expanded cell populations obtained thereby” (Gamida Cell, Ltd., priority 2002, dated 2010).

System: mononuclear cells (MNC)
Assay: Colony-forming cells (CFUs) from mixed cells (MNC) culture
Format: cell-based, human
Settings: FIG. 18
Protocol: Self-renewal potential evaluations: The self-renewal potential of stem cells was determined in vitro by long-term colony formation. Cells were washed and seeded in a semi-solid methylcellulose medium supplemented with 2 IU/ml erythropoietin (Eprex, Cilage AG Int., Switzerland), stem cell factor and IL-3, both at 20 ng/ml (Perpo Tech), and G-CSF and GM-CSF, both at 10 ng/ml (Perpo Tech). The resulting colonies were scored after two weeks of incubation at 37° C. in a humidified atmosphere of 5% CO2 in air. Colonies were classified as blast, mixed, erythroid, myeloid, and megakaryocytic, according to their cellular composition.
Ex vivo expansion of progenitor cells: The non-purified mononuclear cells (MNC), obtained as described hereinabove, were seeded in Culture Bags (American Fluoroseal Corp.), with alpha minimal essential medium supplemented with 10% fetal bovine serum (FBS, Biological Industries), at a concentration of about 10^6 cells/ml. The purified CD34^+ cells were similarly seeded in the Culture Bags, at a concentration of […]. The media were supplemented with TEPA chelator and/or with the following human recombinant cytokines (all obtained from Perpo Tech, Inc., Rocky Hill, N.J.): Thrombopoietin (TPO), 50 ng/ml; interleukin 6 (IL-6), 50 ng/ml; FLT-3 ligand, 50 ng/ml and a stem cell factor (SCF), 50 ng/ml; occasionally SCF was replaced by IL-3, 20 ng/ml. […]

NCCNCCNCCNCCN [TEPA chelator, tetraethylenepentamine]
number of CD34+ CFUs (after 2 weeks): non-detectable | number of CD34+ CFUs (after 10 weeks): 3.2×10^7 cells/ml
